These are literature values, as cited in US12570633B2, “Preparation method for CDK4/6 inhibitor” (CHIA TAI TIANQING PHARMACEUTICAL GROUP CO., LTD., priority 2020, dated 2026).

One data set relates to breast cancer. To be noted: background statement referring to WO2016141881.
The next data set has as its system CDK4/6. To be noted: background statement referring to WO2016141881; read-out: IC50 value against CDK4/6.

For the compound `CC(C)c1c2cc(-c3nc(Nc4ccc(N5CCNCC5)cn4)ncc3F)ccc2nn1C` [compound of formula (I)], the “tumor inhibitory activity against breast cancer” value with breast cancer is reported as “good tumor inhibitory activity”. Besides, the IC50 in the data set with CDK4/6 was less than 1 nM.
